Laboratory results as given in US10393755B2, “Compositions and methods for treating eye infections and disease” (UNIVERSITY OF VIRGINIA PATENT FOUNDATION, priority 2014, dated 2019).
No end group written: not given here.

Columns and labels:
bacteria = experiment: Lacritin inhibition (colony count) assay, bacterium not given; type: cell-based; details: synthetic peptides
Description: (§1) Bacterial Growth, SYTOX Green Assays, and on Column Cleavage—E. coli (ATCC (Manassas Va.) catalog no. 10536), S. epidermidis (ATCC catalog no. 12228), and P. aeruginosa (ATCC catalog no. 9027) were grown to mid-log phase in 50 ml of Luria-Bertani (LB) medium and washed three times in phosphate buffer containing 10 mM NaCl (pH 7.2; PB—NaCl) with centrifugation. Pellets were resuspended in 1 ml of PB—NaCl.
(§2) For lacritin inhibition assays, 50 ul of bacterial pellets each diluted 1:100 in PB—NaCl were incubated for 1.5 h (37° C.) with 100 ul of lacritin, lacritin truncations, or synthetic peptides at a final concentration of 0.1-6 uM. Mixtures were diluted 1:10 in PB—NaCl before plating 100 ul in quadruplicate on LB agar plates for overnight growth at 37° C. Colonies were manually counted. In other experiments, mid-log E. coli was treated at 37° C. for 0, 1, 2, or 3 h with 2 uM lacritin or lacritin truncations or with ampicillin (5 uM) or tetracycline (2 uM). After each treatment, 100 ul was centrifuged, resuspended in 1 ml of PB—NaCl, and plated (100 ul) onto LB agar for overnight growth (37° C.) and colony counting.

P. aeruginosa = experiment: Lacritin inhibition (colony count) assay, P. aeruginosa; type: cell-based; details: dose response studies; read-out: Half-maximal inhibition
Description: as §1, §2

E. coli = experiment: Lacritin inhibition (colony count) assay, E. coli; type: cell-based; details: dose response studies; read-out: Half-maximal inhibition
Description: as §1, §2

HCE-T cells [1] = experiment: Viability (MTT) / cytoprotection of IFNG/TNF stressed cells; type: cell-based, human; details: for Cytoprotective activity of lacritin truncation and point mutants: 10 nM, IFNG/TNF stressed cells
Description: Viability was monitored using the 3-(4,5-dimethyl[…])-2,5-diphenyltetrazolium bromide) (MTT) reduction assay (Invitrogen) or a Nucleocounter (New Brunswick Scientific, Edison, N.J.). Cells were seeded overnight in 24-well plates at a density of 500 cells/mm2 to give rise to ˜80% confluence the next day. Then cells were sensitized overnight in IFNG (100 units/ml) in α-MEM and treated in triplicate for 15 min with 10 nm lacritin or lacritin deletion or point mutants or with different lacritin doses in α-MEM together with TNF as described above.
Inclusion of inhibitors was simultaneous with the addition of lacritin or C-25 in all viability and other experiments except where otherwise noted. Inhibitors included PI103 (0.5 μm; EMD, Darmstadt, Germany), rapamycin (10 and 100 nm; EMD), and cyclosporin A (0.1 μm; EMD). One exception was 4-methylumbelliferyl-β-d-xylopyranoside (“xyloside”; 70 and 80 nm; Sigma), which was added during IFNG sensitization and during treatment with TNF and lacritin. The assay was completed by addition of MTT (5 mg/ml) to each well (at 37° C. for 4 h) followed by isopropanol with 0.04 n HCl and measurement at 570 nm using a reference wavelength of 630 nm. Viability was assayed in a Nucleocounter (New Brunswick Scientific).

[2] = type: in vitro ADME, human
Description: A limitation of most synthetic peptide drugs is their protease sensitivity. […] Retropepsin would inactivate LACRIPEP, while cathepsin K would have no effect. However neither protease is found in normal human tears. Nonetheless, tears are rich in other proteases. We therefore incubated LACRIPEP in normal human tears at 37° C. for 2, 4, 6 and 16 hr. For immunoblotting, we first removed all endogenous lacritin by immunodepletion. […] (FIG. 6B).

HCE-T cells [3] = experiment: Lacritin accelerated autophagy and FOXO3 phosphorylation, inhibitors; type: cell-based, human
Description: Lacritin targeting of corneal sensory neurons. Adrenergic α2C selective antagonist MK912 inhibits lacritin accelerated autophagy in HCE-T cells, as does the syndecan-1 inhibitor xyloside. […] Activity profiles of corneal neurons before, during and 1 hr during/after 10 μM lacritin reveal a small inhibition (from ˜12 to ˜8 spikes/s) follows immediately after the application of lacritin presumably due to α2 adrenergic receptor activation which inhibits TRPM8 channels. Removal of this inhibition after 1 hr of lacritin and washout causes an enhanced excitation of dry (from ˜20 to ˜23 spikes/s) and wet response (from ˜12 to ˜16 spikes/s).

syndecan-1 = target: T1, syndecan-1 (Homo sapiens, UniProt P18827, L136Q); experiment: Binding to syndecan-1
T1 sequence (P18827 23-310 L136Q): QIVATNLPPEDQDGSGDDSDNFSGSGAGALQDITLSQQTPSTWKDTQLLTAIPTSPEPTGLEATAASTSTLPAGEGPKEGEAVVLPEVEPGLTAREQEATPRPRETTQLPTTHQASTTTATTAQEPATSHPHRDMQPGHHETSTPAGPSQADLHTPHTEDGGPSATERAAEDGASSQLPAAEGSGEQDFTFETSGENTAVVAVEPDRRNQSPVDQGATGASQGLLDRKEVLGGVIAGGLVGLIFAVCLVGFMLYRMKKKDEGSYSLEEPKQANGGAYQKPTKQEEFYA

HCE-T cells [4] = experiment: FOXO3 translocation assay in IFNG/TNF stressed HCE-T cells; type: cell-based, human; details: 10 nM, interferon-γ and TNF stressed HCE-T cells
Description: For FOXO3 translocation assays, HCE-T cells were grown in triplicate to subconfluence (˜50%) on coverslips in α-MEM (5.54 mm glucose), sensitized overnight in IFNG (100 units/ml; Roche Applied Science), and treated for 15 min with normal or dry eye tears diluted 1:100 in α-MEM together with TNF (50 ng/ml; PeproTech, Rocky Hill, N.J.) without or with 10 nm lacritin or C-25. Cells were washed, fixed with 4% paraformaldehyde, and immunostained for FOXO3 (1:200; Millipore, Billerica, Mass.) followed by goat anti-rabbit secondary antibody and visualization on a Zeiss LSM 700 microscope.

[5] = Phase behavior and nanoparticle formation (optical density, DLS, TEM); type: physicochemical; details: optical density
Description: The phase diagram for LSI fusion protein was characterized by optical density change at 350 nm as a function of solution temperature using a DU800 UV-Vis Spectrophotometer (Beckman Coulter, Brea, Calif.). Tt was defined at the point of the maximum first derivative. Self-assembly of nanoparticles was measured using dynamic light scattering (DLS) using a DynaPro-LSR Plate Reader (Wyatt Technology, Santa Barbara, Calif.). Light scattering data were collected at regular temperature intervals (1° C.) as solutions were heated from 5 to 50° C. The results were analyzed using a Rayleigh sphere model and fitted into a cumulant algorithm based on the sum-of-squares value.
The TEM imaging was carried out on a FEI Tecnai 12 TWIN microscope (Hillsboro, Oreg.) at 100 kV. Briefly, a 100 uM solution (5 uL) was initially deposited on a copper grid with carbon film (CF400-Cu, Election Microscopy Sciences, Hatfield, Pa.). After removing the excess amount of solution with filter paper, the samples were negatively stained with 2% uranyl acetate, followed by removing excess uranyl acetate after 30 s. b The samples were then dried under room temperature for at least 3 h before use in imaging.

## FAQKLLKKFSLLKPWA [N-104]
bacteria
  Bactericidal activity of synthetic peptides: fully active
P. aeruginosa
  IC50: 1000 to 1500 nM
E. coli
  IC50: ~1000 nM

## AKAGKGMHGGVPGG (listed as Homo sapiens) [N-80/C-25]
bacteria
  Colonies with synthetic peptides: colonies were abundant

## Ac-KQFIENGSEFAQKLLKKFS-NH2 [N-94/C-6, KQFIENGSEFAQKLLKKFS]
bacteria
  Bactericidal activity of synthetic peptides: slightly so
bacteria; listed as SEQ ID NO: 5
  Bactericidal activity of synthetic peptides: substantially reduced the bactericidal activity
HCE-T cells [1]; generated synthetically
  Activity of synthetic peptide relative to lacritin: as potent as lacritin
[2]
  Epitopes by immunoblotting after incubation in tears: loses epitopes
  Stability relative to LACRIPEP: not as stable

## Ac-KQFIENGSEFAQKLLKKFSLLKPWA (N-terminus assumed) [LACRIPEP]
[2]
  Time stable in human tears (immunoblot): at least 16 hr

## LKSIVEKSILLTEQALAKAGKGMH (listed as Homo sapiens) [N-64/C-31]
bacteria
  Colonies with synthetic peptides: colonies were abundant

## CN1CC[C@]2(CCN3CCc4c(oc5ccccc45)[C@@H]3C2)N(C)C1=O [MK912]
HCE-T cells [3]
  Effect on lacritin stimulated FOXO3 phosphorylation: inhibit
HCE-T cells [3]; HCE-T cells
  Effect on lacritin accelerated autophagy: inhibits

## Cc1cc(=O)oc2cc(O[C@@H]3OC[C@@H](O)[C@H](O)[C@H]3O)ccc12 [xyloside, 4-methylumbelliferyl-β-d-xylopyranoside]
HCE-T cells [1]; cells cultured overnight in xyloside
  Effect on lacritin cytoprotective activity: completely abrogated
HCE-T cells [3]
  Effect on lacritin stimulated FOXO3 phosphorylation: inhibit

B1: Cross-linked lacritin: lacritin monomer cross-linked into inactive multimers by tissue transglutaminase (protein)
chain: EDASSDSTGADPAQEAGTSKPNEEISGPAEPASPPETTTTAQETSAAAVQGTAKVTSSRQELNPLKSIVEKSILLTEQALAKAGKGMHGGVPGGKQFIENGSEFAQKLLKKFSLLKPWA
syndecan-1
  Binding to syndecan-1: substantially less
HCE-T cells [4]
  FOXO3 cytoplasmic staining (pro-survival activity): less active
HCE-T cells [4]; listed as tissue transglutaminase polymerized lacritin
  FOXO3 cytoplasmic staining (pro-survival activity): inactive

B2: L108S/L109S/F112S: lacritin triple point mutant (protein, UniProt Q9GZZ8 20-138, looked up, variant L108S L109S F112S)
Extracellular glycoprotein …: EDASSDSTGADPAQEAGTSKPNEEISGPAEPASPPETTTTAQETSAAAVQGTAKVTSSRQELNPLKSIVEKSILLTEQALAKAGKGMHGGVPGGKQFIENGSEFAQKSSKKSSLLKPWA
HCE-T cells [1]
  Cytoprotective activity of lacritin truncation and point mutants: significantly less active

B3: I73S: lacritin point mutant (protein, UniProt Q9GZZ8 20-138, looked up, variant I73S)
Extracellular glycoprotein …: EDASSDSTGADPAQEAGTSKPNEEISGPAEPASPPETTTTAQETSAAAVQGTAKVTSSRQELNPLKSIVEKSSLLTEQALAKAGKGMHGGVPGGKQFIENGSEFAQKLLKKFSLLKPWA
HCE-T cells [1]
  Cytoprotective activity of lacritin truncation and point mutants: unaffected

B4: V69S: lacritin point mutant (protein, UniProt Q9GZZ8 20-138, looked up, variant V69S)
Extracellular glycoprotein …: EDASSDSTGADPAQEAGTSKPNEEISGPAEPASPPETTTTAQETSAAAVQGTAKVTSSRQELNPLKSISEKSILLTEQALAKAGKGMHGGVPGGKQFIENGSEFAQKLLKKFSLLKPWA
HCE-T cells [1]
  Cytoprotective activity of lacritin truncation and point mutants: unaffected

B5: L65S: lacritin point mutant (protein, UniProt Q9GZZ8 20-138, looked up, variant L65S)
Extracellular glycoprotein …: EDASSDSTGADPAQEAGTSKPNEEISGPAEPASPPETTTTAQETSAAAVQGTAKVTSSRQELNPSKSIVEKSILLTEQALAKAGKGMHGGVPGGKQFIENGSEFAQKLLKKFSLLKPWA
HCE-T cells [1]
  Cytoprotective activity of lacritin truncation and point mutants: unaffected

B6: F112S: lacritin point mutant (protein, UniProt Q9GZZ8 20-138, looked up, variant F112S)
Extracellular glycoprotein …: EDASSDSTGADPAQEAGTSKPNEEISGPAEPASPPETTTTAQETSAAAVQGTAKVTSSRQELNPLKSIVEKSILLTEQALAKAGKGMHGGVPGGKQFIENGSEFAQKLLKKSSLLKPWA
HCE-T cells [1]
  Cytoprotective activity of lacritin truncation and point mutants: significantly less active

B7: F104S: lacritin point mutant (protein, UniProt Q9GZZ8 20-138, looked up, variant F104S)
Extracellular glycoprotein …: EDASSDSTGADPAQEAGTSKPNEEISGPAEPASPPETTTTAQETSAAAVQGTAKVTSSRQELNPLKSIVEKSILLTEQALAKAGKGMHGGVPGGKQFIENGSESAQKLLKKFSLLKPWA
HCE-T cells [1]
  Cytoprotective activity of lacritin truncation and point mutants: significantly less active

B8: I98S: lacritin point mutant (protein, UniProt Q9GZZ8 20-138, looked up, variant I98S)
Extracellular glycoprotein …: EDASSDSTGADPAQEAGTSKPNEEISGPAEPASPPETTTTAQETSAAAVQGTAKVTSSRQELNPLKSIVEKSILLTEQALAKAGKGMHGGVPGGKQFSENGSEFAQKLLKKFSLLKPWA
HCE-T cells [1]
  Cytoprotective activity of lacritin truncation and point mutants: significantly less active

B9: LS96: lacritin fused to soluble ELP (VPGSG)96; thermally nonresponsive control (protein)
chain: GEDASSDSTGADPAQEAGTSKPNEEISGPAEPASPPETTTTAQETSAAAVQGTAKVTSSRQELNPLKSIVEKSILLTEQALAKAGKGMHGGVPGGKQFIENGSEFAQKLLKKFSLLKPWAGLVPRGSGVPGSGY
modifications: ELP lacritin fusion construct; (129)..(133) the sequence VPGSG is directly repeated 96 times
notes: lacritin fused to soluble ELP (VPGSG)96; thermally nonresponsive control
[5]
  Phase transitions in phosphate buffered saline: does not display any observable phase transitions
